Assay results published in patent US4670432A, “Pyrazolopyridine derivatives useful in treating inflammation and allergic conditions” (Beecham Group p.l.c., priority 1984, dated 1987).

What was measured:
cantharidin mouse ear = experiment: Mouse Cantharidin Screen (topical anti-inflammatory activity); type: in vivo; conditions: applied with cantharidin, 24 h
Description: Compounds were tested for topical anti-flammatory activity in a cantharidin mouse ear screen, modified from Swingle et al [Swingle, K. F., Reiter, M. J. and Schwartzmiller, D. H., Arch. Int. Pharmacodyn. (1981), 254, 168-176].
25 μg cantharidin (in 10 μl THF/MeOH) was applied to both ears. Compound, in the same solvent, was applied at the same time, to the left ear only. Ears were weighed 24 h after cantharidin application. Percentage inhibition of the acute inflammatory swelling refers to the increase in weight of left ears (catharidin plus compound) compared with solvent-treated negative controls, as a proportion of the increase in weight of right ears (cantharidin alone) over similar controls.

[1] = system: mouse sensitised to oxazolone; experiment: Mouse Oxazolone Screen (topical anti-inflammatory activity); type: in vivo; conditions: 1 h before oxazolone challenge, ears weighed 24 h later
Description: Compounds were tested for topical anti-inflammatory activity in a screen using the mouse sensitised to oxazolone, by a method modified from that of Dietrich and Hess [Dietrich, F. M., and Hess, R., Int. Arch. Allergy, (1970), 38, 246-259].
Mice were sensitised with oxazolone (2 mg in 20 μl ethanol) on a shaved area of the abdomen. Five days later, the animals received 10 μl THF/MeOH (1:1 v/v) on the right ear, and the test compound in the same solvent on the left ear. One hour later, the animals were challenged with 100 μg oxazolone in 10 μl acetone on each ear. Ear weights were measured 24 h later. Percentage inhibition of the inflammatory swelling refers to the increase in weight of left ears (oxazolone plus compound) compared with solvent-treated negative controls, as a proportion of the increase in weight of right ears (oxazolone alone) over similar controls.

5-Lipoxygenase = experiment: RBL-1 5-Lipoxygenase Screen; type: biochemical; conditions: 20 μM; 10,000 g supernatant from RBL-1 cells, 29° C.
Description: 5-Lipoxygenase enzyme was prepared as a 10,000 g supernatant from RBL-1 cells by the method of Jakschik [Jakschik, B. A., Sun, F. F., Lee, L. M. and Steinhoff, M. M., 1980, Biochem. Biophys. Res. Comm. 95, 103]. The 10,000 g supernatant was diluted with homogenization buffer to the equivalent of 1.5-2.5×10^7 cells ml^-1 and made 2 mM with respect to CaCl2. Aliquots of 0.5 ml were then dispensed into tubes, and incubated at 29° C. with 5 γl ethanol or compound in ethanol at the desired concentration for 2 min. Then [1-^14 C] arachidonic acid was added in buffer to give a final concentration of 6.3. μm and 0.2 μCi per incubation, and the reaction continued at 29° C. for 2 min. The reaction was terminated by adding 1 ml of acetone and cooling on ice. 0.5 ml of ice cold saline and 10 μl of 2N formic acid were added, and the mixture was extracted with 2×2 ml of chloroform. The extract was stored under N2 at -20° C. until analysis by chromatography. Activity was measured as the percentage of total radioactivity found in 5-HETE and 5,12-diHETE, and inhibition calculated as the decrease in formation of the sum of these two species in compound-treated incubates relative to control incubates.

SMILES | % Inhibition (acute inflammatory swelling, ear weight) (cantharidin mouse ear; 500 μg/ear) [%] | % Inhibition (inflammatory swelling, ear weight) ([1]; 200 μg/ear) [%] | % Inhibition (acute inflammatory swelling, ear weight) (cantharidin mouse ear; 200 μg/ear) [%] | inhibition (decrease in formation of 5-HETE and 5,12-diHETE) (5-Lipoxygenase) [%] | % Inhibition (inflammatory swelling, ear weight) ([1]; 500 μg/ear) [%]
C=CCNc1ccnc2cn[nH]c12 [Example 7, 7-Allylamino-1H-pyrazolo[4,3-b]pyridine] | 83 |  |  |  | 
Cc1cc(NCCCN(C)C)c2[nH]ncc2n1 [Example 6, 7-[3-Dimethylaminopropylamino]-5-methyl-1H-pyrazolo[4,3-b]pyridine] | 97 |  |  |  | 
Cc1cc(NCCO)c2[nH]ncc2n1 [Example 3, 7-[2-Hydroxyethylamino]-5-methyl-1H-pyrazolo[4,3-b]pyridine] |  | 65 | 76 |  | 
C=CCNc1cc(C)nc2cn(C)nc12 [Example 5, 7-Allylamino-2,5-dimethyl-pyrazolo[4,3-b]pyridine] |  | 71 | 68 |  | 
COCCNc1cc(C)nc2c[nH]nc12 [Example 4] |  | 52 | 57 |  | 
C=CCNc1cc(C)nc2cn[nH]c12 [Example 1, 7-Allylamino-5-methyl-1H-pyrazolo[4,3-b]pyridine] |  | 62 | 88 | 39 | 
Cc1cc(NCCCO)c2[nH]ncc2n1 [Example 2, 7-[3-hydroxypropylamino]-5-methyl-1H-pyrazolo[4,3-b]pyridine] |  |  | 82 |  | 82
